These results are taken from patent US4633014A, “Substituted 3-hydrazinopropionates” (priority 1983, dated 1986).

The term LD50 denotes the dose expected to kill half of the subjects tested.

Series [1] deals with arrhythmia induced by an intravenous administration of calcium chloride. Put plainly: Antiarrhythmic activity on a model of arrhythmia induced by intravenous calcium chloride (antagonism to calcium) in mice. It is filed as in vivo. The settings on record: white mice, 20-40 minutes before. On the procedure: The specific (antiarrhythmic) effect and acute toxicity were studied.
The antiarrhythmic activity of the compounds according to the present invention was studied on a model of arrhythmia induced by an intravenous administration of calcium chloride. In experiments on white mice of both sexes with a mass of 18-25 g narcotized by urethane (1,200 mg/kg intraperitoneally) ECG in the second standard lead was recorded. A 2% solution of calcium chloride was introduced into the tail vein at a constant rate (0.01 ml for 2 sec). The dose of calcium chloride causing arrhythmia and the dose causing the heart arrest were determined. In the test groups the test compounds were administered intraperitoneally 20-40 minutes before the beginning of the experiment.

A short description of the next series: in vivo. Conditions: mouse, in vivo, ip. On the procedure:
(§1) The study of the effect provided by the compounds according to the present invention on the cardio-vascular system was carried out in experiments on white mice. The specific (antiarrhythmic) effect and acute toxicity were studied.
(§2) The acute toxicity of the compounds according to the present invention was determined in experiments on white mice with a mass of 20-25 g. The test compounds were administered intraperitoneally in the form of aqueous solutions or suspensions in Twin-80. Observation over the test animals was effected for 10 days.

The next series has as its system white mice. The experiment in a line: in vivo. The settings on record: mouse, in vivo, ip, 14400 min. On the procedure: as §1, §2

Consider `C=CCNC(=S)N(CCC(N)=O)N(C)C` [I-18], for which, in series [1] (intraperitoneal dose 5 mg/kg), the “Dose of calcium chloride causing arrythmia in animals under experiment” value is on record as 127 mg/kg and the “Dose of calcium chloride causing death in animals under experiment” value (“Dose of calcium chloride causing death” for short) is reported as 160,5 mg/kg. In series [1] (intraperitoneal dose 15 mg/kg), the “Dose of calcium chloride causing arrythmia in animals under experiment” value was found to be 153 mg/kg and the “Dose of calcium chloride causing death” value was found to be 168 mg/kg. The compound also had a 50% lethal dose (LD50) at 240 h in the series “in vivo” of 2900 mg/kg. In addition, the “Relative toxisity to quinidine” value in the series on white mice was 18,6.

For `CN(C)N(CCC(N)=O)C(=S)Nc1ccccc1` [I-19, 3-(2,2-dimethyl-1-phenylthiocarbamoylhydrazino)propionamide], the “Dose of calcium chloride causing arrythmia in animals under experiment” value in series [1] (intraperitoneal dose 5 mg/kg) is on record as 98,3 mg/kg; in series [1] (intraperitoneal dose 15 mg/kg), 110,5 mg/kg. For the same compound, the entries for the “Dose of calcium chloride causing death” value in series [1] (intraperitoneal dose 5 mg/kg) and in series [1] (intraperitoneal dose 15 mg/kg) were 112,0 mg/kg and 130,0 mg/kg, respectively. Besides, the LD50 at 240 h in “in vivo” is 1750 mg/kg. Further, in the series on white mice, the “Relative toxisity to quinidine” value is 11,2.

Take `CC(CN(C(=S)Nc1ccccc1)N(C)C)C(N)=O` (stereo not drawn) [I-20, 3-(2,2-dimethyl-1-phenylthiocarbamoylhydrazino)2-methylpropionamide]: in series [1] (intraperitoneal dose 5 mg/kg), the “Dose of calcium chloride causing arrythmia in animals under experiment” value is 102 mg/kg and the “Dose of calcium chloride causing death” value came out at 123 mg/kg. Moreover, in series [1] (intraperitoneal dose 15 mg/kg), the “Dose of calcium chloride causing arrythmia in animals under experiment” value is given as 106,4 mg/kg and the “Dose of calcium chloride causing death” value is recorded as 118,6 mg/kg. In “in vivo”, the 50% lethal dose (LD50) at 240 h turned out to be 1340 mg/kg. The “Relative toxisity to quinidine” value in the series on white mice is 8,6.

With `CNC(=O)N(CCC#N)N(C)C` [I-21, 3-(2,2-dimethyl-1-methylcarbamoylhydrazino)propionitrile], the figures for the “Dose of calcium chloride causing arrythmia in animals under experiment” value in series [1] (intraperitoneal dose 5 mg/kg) and in series [1] (intraperitoneal dose 25 mg/kg) were 87,5 mg/kg and 113,6 mg/kg, respectively. Also, the “Dose of calcium chloride causing death” value is recorded as 111,5 mg/kg in series [1] (intraperitoneal dose 5 mg/kg) and 128,0 mg/kg in series [1] (intraperitoneal dose 25 mg/kg). The compound also displayed an LD50 at 240 h in the series “in vivo” of 1800 mg/kg. Moreover, the “Relative toxisity to quinidine” value with white mice is 11,5.

For `C=CCNC(=S)N(CCC#N)N(C)C` [I-22, 3-(2,2-dimethyl-1-allylthiocarbamoylhydrazino)propionitrile], in series [1] (intraperitoneal dose 5 mg/kg), the “Dose of calcium chloride causing arrythmia in animals under experiment” value was 92,5 mg/kg and the “Dose of calcium chloride causing death” value was 108,0 mg/kg. In series [1] (intraperitoneal dose 25 mg/kg), the “Dose of calcium chloride causing arrythmia in animals under experiment” value is 130,0 mg/kg and the “Dose of calcium chloride causing death” value is reported as 146,0 mg/kg. Also, the LD50 at 240 h in “in vivo” was 1450 mg/kg. Also, in the series with white mice, the “Relative toxisity to quinidine” value is given as 9,3.

Take `CN(C)N(CCC#N)C(=S)Nc1ccccc1` [I-23, 3-(2,2-dimethyl-1-phenylthiocarbamoylhydrazino)propionitrile]: in series [1] (intraperitoneal dose 5 mg/kg), the “Dose of calcium chloride causing arrythmia in animals under experiment” value stood at 86 mg/kg and the “Dose of calcium chloride causing death” value is on record as 101,3 mg/kg. In series [1] (intraperitoneal dose 25 mg/kg), the “Dose of calcium chloride causing arrythmia in animals under experiment” value was 117,7 mg/kg and the “Dose of calcium chloride causing death” value is 119,0 mg/kg. This compound also returned an LD50 at 240 h in the series “in vivo” of 1680 mg/kg. For the same compound, the “Relative toxisity to quinidine” value with white mice is listed as 10,7.

Take `COC(=O)CCN(C(C)=O)N(C)C` [I-24, 3-(2,2-Dimethyl-1-acetylhydrazino)methylpropionate]: the “Dose of calcium chloride causing arrythmia in animals under experiment” value was 108,0 mg/kg in series [1] (intraperitoneal dose 5 mg/kg) and 116,5 mg/kg in series [1] (intraperitoneal dose 15 mg/kg). The “Dose of calcium chloride causing death” value was 132,0 mg/kg in series [1] (intraperitoneal dose 5 mg/kg) and 140,3 mg/kg in series [1] (intraperitoneal dose 15 mg/kg). In “in vivo”, the 50% lethal dose (LD50) at 240 h was determined as 1300 mg/kg. The “Relative toxisity to quinidine” value in the series on white mice was 8,3.

Consider `CCCC(=O)N(CCC(=O)OC)N(C)C` [I-25, 3-(2,2-dimethyl-1-butyrylhydrazino)-methylpropionate], for which the results for the “Dose of calcium chloride causing arrythmia in animals under experiment” value in series [1] (intraperitoneal dose 5 mg/kg) and in series [1] (intraperitoneal dose 25 mg/kg) were 105,1 mg/kg and 77,0 mg/kg, respectively. The “Dose of calcium chloride causing death” value in series [1] (intraperitoneal dose 5 mg/kg) is 112,3 mg/kg; in series [1] (intraperitoneal dose 25 mg/kg), 95,0 mg/kg. The compound also yielded an LD50 at 240 h in the series “in vivo” of 1750 mg/kg. For the same compound, the “Relative toxisity to quinidine” value in the series on white mice is 11,2.
